Data: PMC11345829, “Discovery of Potent Isoquinolinequinone N-Oxides to Overcome Cancer Multidrug Resistance” (Journal of Medicinal Chemistry, 2024)

Experiments:
NCI-H460 cells [1] = experiment: Western blot protein expression analysis; assay type: cell-based, human
Method: Western blot analysis was performed to evaluate the expression of known proteins associated with cell proliferation, cell cycle, apoptosis, and DNA damage (Figure 10).
Figure 10 Effect of compound 25 on the NCI-H460 cellular expression of proteins involved in proliferation, cell death and DNA damage, analyzed by Western Blotting. […] (B) Graphical representation of the expression of proteins analyzed. β-actin was used as loading control. Results are the mean ± SEM from 3 independent experiments. * p ≤ 0.05, ** p ≤ 0.01 when comparing DMSO vs compound treatment.
After this treatment, cells were centrifuged at 1200 rpm for 5 min at 4 °C, and then lysed in Wynman’s buffer, as previously described,[79] containing EDTA-free protease (Roche, Basel, Switzerland) and phosphatase inhibitors (Merck Life Science) for 30 min with agitation and at 4 °C. Protein lysates were obtained after centrifugation at 13 000 rpm, for 10 min at 4 °C, and stored at −20 °C until used. A modified Lowry protocol, DC Protein assay kit (Bio-Rad, Hercules, California, USA), was used to quantify the total protein content (using a BSA standard calibration curve). The absorbance was analyzed with the Gen5 software on the microplate reader Synergy Mx, […].
Then 20 μg of protein per treatment condition was loaded and separated in 12% SDS-PAGE gels and electrophoretically transferred into nitrocellulose membranes (GE Healthcare Life Science, Chalfont St Giles, UK) for 2 h using a Mini Trans-Blot Cell system (Bio-Rad). The membranes were then stained with Ponceau S solution (PanReac AppliChem, Barcelona, Spain) to confirm that proper protein transfer occurred. Then, the membranes were blocked in Tris-buffered saline solution (TBS) pH 7.4 containing 5% (w/v) nonfat dry milk (Molico, Nestlé, Vevey, Switzerland) or 5% (w/v) BSA for 2 h at RT. The membranes were incubated for 90 min at RT with the following primary antibodies: caspase-3 (1:200; sc-56053), cyclin D1 (1:200; sc-8396), cyclin E (1:100; sc-377100), p21 (1:200; sc-6246), p53 (1:200; sc-126), PARP-1 (1:200; sc-8007), p-Histone H2A.X (1:200; sc-517348), TP53BP1 (1:100; sc-515841), and β-actin (1:200; sc-13118) from Santa Cruz Biotechnology, Dallas, Texas, USA. Following washing steps in TBS-T, the membranes were incubated with their respective secondary antibodies, antimouse IgG horseradish peroxidase (HRP) (Cytiva, Marlborough, Massachusetts, USA) or antirabbit IgG-HRP (Cytiva) for 1 h at RT in an orbital shaker. […] The signal was detected with a Fuji Medical Film Processor (FPM-100A model), and the immunoblots were digitalized using the GS-800 calibrated densitometer (Bio-Rad). Band quantification was carried out with Software Image Lab version 6.0.1 (Bio-Rad), and the molecular weight of protein bands were estimated by comparison with the bands from a protein marker (PageRuler Plus Prestained Protein Ladder, 10−250 kDa, Thermo Fisher Scientific).

NCI-H460 cells [2] = experiment: Annexin V-FITC/PI cell death assay; assay type: cell-based, human; settings: 48 h; 0.35 and 0.7 μM
Method: The effect of compound 25 on the levels of apoptosis and necrosis was evaluated using annexin V-FITC/PI labeling followed by flow cytometry analysis.
Figure 9 Effect of compound 25 on the levels of death of NCI-H460 cells, analyzed by flow cytometry (annexin V−PI assay). […] Results are the mean ± SEM from at least 3 independent experiments. * p ≤ 0.05, when comparing DMSO vs compound treatment.
Analysis of cell death was performed using the Annexin V-FITC apoptosis detection kit (eBioscience, Thermo Fisher Scientific). […] Exposure to 5% ethanol for 1 h was used as a positive control for necrosis. Collected cells were resuspended in the binding buffer solution and incubated with the Annexin V-FITC conjugate for 10 min at RT, in the dark. Afterward, PI was added, and samples were analyzed using the BD Accuri C6 flow cytometer, where at least 10 000 events per sample were plotted. Data analysis was carried out using the BD Accuri C6 Software.

[3] = target: T1, P-gp mediated drug efflux in NCI-H460/R cells (Homo sapiens, UniProt P08183); experiment: Rhodamine-123 accumulation (drug efflux) assay; assay type: cell-based; settings: 1 h, 10 or 20 μM
T1 construct: these cells overexpress the MDR1 gene which encodes for P-gp; endogenous in cells; host or cells: NCI-H460/R (doxorubicin-selected MDR human NSCLC cells)
Method: Figure 11 Relative rhodamine-123 accumulation in NCI-H460 or in NCI-H460/R cells following treatment with compound 25, evaluated by flow cytometry (rhodamine-123 efflux assay). Cells were incubated for 1 h with medium, DMSO (vehicle at the % used in the highest tested concentration of 25), verapamil (positive control), or compound 25 at two different concentrations (10 and 20 μM). Verapamil (20 μM) was used as a positive control (P-gp inhibitor). Results are the mean ± SEM of at least 3 independent experiments. * p ≤ 0.05, when comparing vehicle (DMSO) vs compound treatment in NCI-H460/R cells.
The NSCLC cells (1.5 × 10^5 cells/mL) were incubated for 1 h at 37 °C in the presence of 10 μM or 20 μM of compound 25 and with 1 μM of rhodamine-123 (Sigma-Aldrich). NCI-H460 cells without treatment were used as a negative control and NCI-H460/R cells treated with verapamil (a known P-gp inhibitor) at concentrations of 10 and 20 μM were used as a positive controls.[80],[81] After the incubation time, cells were washed in cold PBS and kept at 4 °C, protected from light until analysis in the flow cytometer. At least 10 000 cells per sample were acquired and analyzed on the BD Accuri C6 flow cytometer.

NCI-H460 cells [4] = experiment: ROS accumulation, CM-H2DCFDA flow cytometry; assay type: cell-based, human; settings: 6 h; 0.7, 1 and 5 μM; concentration dependent
Text: To uncover the mechanisms of action of 25, we analyzed the cellular accumulation of ROS by flow cytometry, using a fluorescent marker of ROS, 5-(and-6)-chloromethyl-2′,7′-dichlorodihydrofluorescein diacetate acetyl ester (CM-H2DCFDA). […] Importantly, this effect was concentration dependent.
Figure 6 Effect of the compound 25 on ROS accumulation in NCI-H460 cells. […] Results are presented as mean fluorescence values, normalized to the blank. Data are expressed as mean ± SEM from at least 3 independent experiments.
To study the effect of compound 25 on ROS levels, 5-(and-6)-chloromethyl-2′,7′-dichlorodihydrofluorescein diacetate, acetyl ester (CM-H2DCFDA; Invitrogen) analysis by flow cytometry was performed in the drug-sensitive cells. NCI-H460 cells (1.5 × 10^5/mL) were plated in 6-well plates for 24 h. […] Harvested cells were subsequently washed twice in phosphate-buffered saline (PBS) and the CM-H2DCFDA fluorescence was analyzed in a BD AccuriTM flow cytometer (BD Biosciences, San Jose, California, USA). Mean fluorescence intensity was calculated after correction for autofluorescence.

T1 sequence (P08183 whole entry): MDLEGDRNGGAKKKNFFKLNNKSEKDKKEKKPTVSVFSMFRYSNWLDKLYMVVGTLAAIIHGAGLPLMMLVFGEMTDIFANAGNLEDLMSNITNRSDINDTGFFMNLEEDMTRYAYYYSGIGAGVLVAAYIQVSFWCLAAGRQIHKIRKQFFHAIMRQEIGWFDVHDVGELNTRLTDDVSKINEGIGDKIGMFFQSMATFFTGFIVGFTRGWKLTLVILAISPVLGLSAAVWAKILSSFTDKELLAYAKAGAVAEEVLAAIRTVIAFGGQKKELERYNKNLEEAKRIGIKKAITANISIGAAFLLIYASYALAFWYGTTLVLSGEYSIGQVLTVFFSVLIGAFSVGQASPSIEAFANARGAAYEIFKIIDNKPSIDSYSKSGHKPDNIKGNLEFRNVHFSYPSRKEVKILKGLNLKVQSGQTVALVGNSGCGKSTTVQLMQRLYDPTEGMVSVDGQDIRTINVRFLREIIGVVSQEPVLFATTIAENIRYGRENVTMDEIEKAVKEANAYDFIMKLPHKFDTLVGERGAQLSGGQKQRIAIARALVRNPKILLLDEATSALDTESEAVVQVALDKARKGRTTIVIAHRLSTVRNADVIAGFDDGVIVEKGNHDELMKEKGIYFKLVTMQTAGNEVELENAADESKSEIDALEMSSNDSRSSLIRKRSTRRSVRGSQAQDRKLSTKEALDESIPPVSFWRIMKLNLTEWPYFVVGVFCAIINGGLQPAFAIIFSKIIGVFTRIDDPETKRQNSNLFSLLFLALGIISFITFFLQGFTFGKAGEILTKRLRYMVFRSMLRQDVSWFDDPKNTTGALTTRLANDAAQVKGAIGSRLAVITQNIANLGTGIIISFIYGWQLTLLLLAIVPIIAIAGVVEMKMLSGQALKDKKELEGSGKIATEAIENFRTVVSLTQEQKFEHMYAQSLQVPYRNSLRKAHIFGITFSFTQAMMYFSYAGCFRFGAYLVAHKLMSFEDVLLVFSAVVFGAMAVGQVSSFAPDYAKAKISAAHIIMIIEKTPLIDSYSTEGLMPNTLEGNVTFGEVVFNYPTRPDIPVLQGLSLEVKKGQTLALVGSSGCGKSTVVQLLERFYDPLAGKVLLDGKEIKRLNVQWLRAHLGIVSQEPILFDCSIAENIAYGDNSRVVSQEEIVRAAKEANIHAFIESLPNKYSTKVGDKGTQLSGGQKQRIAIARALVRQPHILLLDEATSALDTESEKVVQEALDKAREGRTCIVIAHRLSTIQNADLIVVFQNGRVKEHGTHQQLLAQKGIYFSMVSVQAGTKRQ

COC(=O)c1c2c(c[n+]([O-])c1C)C(=O)C=C(NCc1ccccc1)C2=O [Compound 25]
cyclin D1 expression (NCI-H460 cells [1]; 48 h): increased the expression of cyclin D1 (although not statistically significantly) | p53 expression (NCI-H460 cells [1]; 48 h): slightly increased the expression of p53, although not statistically significant | PARP-1 expression (NCI-H460 cells [1]; 48 h, 0.35 and 0.7 μM): does not alter the expression levels of PARP-1 | p21 expression (NCI-H460 cells [1]; 48 h, 2 × GI50): clearly increased the expression of p21 | procaspase-3 expression (NCI-H460 cells [1]; 48 h, both 0.35 and 0.7 μM): significant decrease in procaspase-3 | TP53BP1 and p-histone H2A.X expression (NCI-H460 cells [1]; higher concentration tested, not statistically significant): increased the expression levels of TP53BP1 and of the p-histone H2A.X | p62, LC3-I and LC3-II expression (NCI-H460 cells [1]; preliminary, data not shown): did not alter the expression levels of p62, LC3-I. and LC3-II | percentage of dead cells (apoptosis/necrosis) (NCI-H460 cells [2]): did not cause an increase in the percentage of dead cells | rhodamine-123 accumulation [3]: caused rhodamine accumulation within the cells, in a similar extent to the positive control verapamil | ROS accumulation (fluorescence intensity) (NCI-H460 cells [4]): statistically significant increase on fluorescence intensity
